Measured values taken from ChEMBL document CHEMBL4138253, “Synthesis and Biological Evaluation of a Series of Bile Acid Derivatives as FXR Agonists for Treatment of NASH” (ACS Med Chem Lett, 2017).

Tests used:
[1] = biological target: T1, Bile acid receptor (Homo sapiens) (UniProt Q96RI1); assay: Agonist activity at recombinant human GST-tagged FXR LBD (193 to 472 residues) expressed in baculovirus-infected insect cells assessed as recruitment of biotinylated SRC1 peptide measured after 1 hr by Alphascreen assay relative to CDCA
T1 sequence (whole entry): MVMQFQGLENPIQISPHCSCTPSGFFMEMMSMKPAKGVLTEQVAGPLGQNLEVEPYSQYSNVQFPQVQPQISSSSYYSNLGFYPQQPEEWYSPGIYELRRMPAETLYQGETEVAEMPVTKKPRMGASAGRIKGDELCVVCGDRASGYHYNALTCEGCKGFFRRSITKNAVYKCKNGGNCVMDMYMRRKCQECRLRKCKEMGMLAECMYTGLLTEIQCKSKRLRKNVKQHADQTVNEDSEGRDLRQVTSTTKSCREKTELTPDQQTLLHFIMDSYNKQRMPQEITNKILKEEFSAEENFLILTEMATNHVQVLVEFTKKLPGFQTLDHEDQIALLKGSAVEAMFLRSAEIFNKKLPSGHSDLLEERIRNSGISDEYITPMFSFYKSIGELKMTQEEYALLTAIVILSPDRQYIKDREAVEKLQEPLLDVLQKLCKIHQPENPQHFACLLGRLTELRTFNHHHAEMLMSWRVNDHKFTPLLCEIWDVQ

Bile acid receptor [2] = biological target: T2, Bile acid receptor (Homo sapiens, UniProt Q96RI1); assay: Agonist activity at recombinant human GST-tagged FXR LBD (193 to 472 residues) expressed in baculovirus-infected insect cells assessed as recruitment of biotinylated SRC1 peptide measured after 1 hr by Alphascreen assay
T2 sequence (Q96RI1 whole entry): T1 sequence (whole entry)

[3] = biological target: T3, G-protein coupled bile acid receptor 1 (Homo sapiens, UniProt Q8TDU6); assay: Agonist activity at human TGR5 expressed in HEK293 cells assessed as increase in intracellular cAMP level after 1 hr by TR-FRET assay; assay type: functional, cell-based
T3 sequence (Q8TDU6 whole entry): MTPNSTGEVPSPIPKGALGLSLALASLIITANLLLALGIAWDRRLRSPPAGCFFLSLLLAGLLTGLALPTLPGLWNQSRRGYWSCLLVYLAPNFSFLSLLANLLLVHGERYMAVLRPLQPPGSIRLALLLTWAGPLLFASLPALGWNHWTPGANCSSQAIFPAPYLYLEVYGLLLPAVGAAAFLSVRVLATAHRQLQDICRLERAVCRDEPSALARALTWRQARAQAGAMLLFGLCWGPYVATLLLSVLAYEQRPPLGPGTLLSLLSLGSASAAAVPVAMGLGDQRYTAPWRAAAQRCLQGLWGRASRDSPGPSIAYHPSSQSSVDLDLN

Homo sapiens = organism: Homo sapiens; assay: Selectivity ratio of EC50 for recombinant human GST-tagged FXR LBD (193 to 472 residues) expressed in baculovirus-infected insect cells to EC50 for human TGR5 expressed in HEK293 cells
Bile acid receptor [4] = biological target: T2, Bile acid receptor; assay: Agonist activity at FXR (unknown origin) measured after 16 hrs in presence of CCF4-AM dye by cell-based GeneBlazer FRET assay
[5] = biological target: T1, Bile acid receptor (Homo sapiens); assay: Agonist activity at FXR (unknown origin) measured after 16 hrs in presence of CCF4-AM dye by cell-based GeneBlazer FRET assay relative to CDCA

Row | SMILES | Efficacy [1] | EC50 (Bile acid receptor [2]) | EC50 [3] | EC50 (Bile acid receptor [4]) | Efficacy [5] | Ratio EC50 (Homo sapiens)
1 | CC[C@H]1[C@@H](O)[C@@H]2[C@H](CC[C@]3(C)[C@@H]([C@H](C)CCC4NC(=O)NC4=O)CC[C@@H]23)[C@@]2(C)CC[C@@H](O)C[C@@H]12 (some centres not stated) | 202% | 2700 nM |  |  |  | 
2 | CC[C@H]1[C@@H](O)[C@@H]2[C@H](CC[C@]3(C)[C@@H]([C@H](C)CCNS(C)(=O)=O)CC[C@@H]23)[C@@]2(C)CC[C@@H](O)C[C@@H]12 | 128% | 280 nM |  |  |  | 
3 | CC[C@H]1[C@@H](O)[C@@H]2[C@H](CC[C@]3(C)[C@@H]([C@H](C)CCC(N)=O)CC[C@@H]23)[C@@]2(C)CC[C@@H](O)C[C@@H]12 | 142% | 600 nM |  |  |  | 
4 | CC[C@H]1[C@@H](O)[C@@H]2[C@H](CC[C@]3(C)[C@@H]([C@H](C)CCC(=O)O)CC[C@@H]23)[C@@]2(C)Cc3cn[nH]c3C[C@@H]12 | 136% | 300 nM |  |  |  | 
5 | CC[C@H]1[C@@H](O)[C@@H]2[C@H](CC[C@]3(C)[C@@H]([C@H](C)CCCNC(=O)N4CC[C@H](O)C4)CC[C@@H]23)[C@@]2(C)CC[C@@H](O)C[C@@H]12 | 129% | 370 nM |  |  |  | 
6 | CC[C@H]1[C@@H](O)[C@@H]2[C@H](CC[C@]3(C)[C@@H]([C@H](C)CCc4nn[nH]n4)CC[C@@H]23)[C@@]2(C)CC[C@@H](O)C[C@@H]12 | 153% |  |  |  |  | 30
7 | CC[C@H]1[C@@H](O)[C@@H]2[C@H](CC[C@]3(C)[C@@H]([C@H](C)CCNC(=O)OCc4ccccc4)CC[C@@H]23)[C@@]2(C)CC[C@@H](O)C[C@@H]12 | 130% | 300 nM |  |  |  | 
8 | CC[C@H]1[C@@H](O)[C@@H]2[C@H](CC[C@]3(C)[C@@H]([C@H](C)CCC(C)=O)CC[C@@H]23)[C@@]2(C)CC[C@@H](O)C[C@@H]12 | 263% | 1000 nM |  |  |  | 
9 | CC[C@H]1[C@@H](O)[C@@H]2[C@H](CC[C@]3(C)[C@@H]([C@H](C)CCC(=O)S)CC[C@@H]23)[C@@]2(C)CC[C@@H](O)C[C@@H]12 | 226% | 240 nM |  |  |  | 
10 | CC[C@H]1[C@@H](O)[C@@H]2[C@H](CC[C@]3(C)[C@@H]([C@H](C)CCNC(=O)OCc4cccs4)CC[C@@H]23)[C@@]2(C)CC[C@@H](O)C[C@@H]12 | 142% | 230 nM |  | 110 nM | 168% | 
11 | CC[C@H]1[C@@H](O)[C@@H]2[C@H](CC[C@]3(C)[C@@H]([C@H](C)CCNS(=O)(=O)C4CC4)CC[C@@H]23)[C@@]2(C)CC[C@@H](O)C[C@@H]12 | 87% | 230 nM |  |  |  | 
12 | CC[C@H]1[C@@H](O)[C@@H]2[C@H](CC[C@]3(C)[C@@H]([C@H](C)CCCNS(=O)(=O)c4ccccc4)CC[C@@H]23)[C@@]2(C)CC[C@@H](O)C[C@@H]12 | 79% | 230 nM |  |  |  | 
13 | CC[C@H]1[C@@H](O)[C@@H]2[C@H](CC[C@]3(C)[C@@H]([C@H](C)CCNC(=O)OC(C)C)CC[C@@H]23)[C@@]2(C)CC[C@@H](O)C[C@@H]12 | 162% | 300 nM |  |  |  | 
14 | CC[C@H]1[C@@H](O)[C@@H]2[C@H](CC[C@]3(C)[C@@H]([C@H](C)CCC(=O)O)CC[C@@H]23)[C@@]2(C)CCC(F)(F)C[C@@H]12 | 109% | 1100 nM |  |  |  | 
15 | CC[C@H]1[C@@H](O)[C@@H]2[C@H](CC[C@]3(C)[C@@H]([C@H](C)CCC(=O)O)CC[C@@H]23)[C@@]2(C)CCCC[C@@H]12 | 126% | 400 nM |  |  |  | 
16 | CC[C@H]1[C@@H](O)[C@@H]2[C@H](CC[C@]3(C)[C@@H]([C@H](C)CCNC(=O)OC4CCCCC4)CC[C@@H]23)[C@@]2(C)CC[C@@H](O)C[C@@H]12 | 140% | 300 nM |  |  |  | 
17 | CC[C@H]1[C@@H](O)[C@@H]2[C@H](CC[C@]3(C)[C@@H]([C@H](C)CCC(=O)O)CC[C@@H]23)[C@@]2(C)CCC3(CC3)C[C@@H]12 | 68% | 700 nM |  |  |  | 
18 | CC[C@H]1[C@@H](O)[C@@H]2[C@H](CC[C@]3(C)[C@@H]([C@H](C)CCC(=O)O)CC[C@@H]23)[C@@]2(C)CC[C@@H](OC)C[C@@H]12 | 108% | 1800 nM |  |  |  | 
19 | CCOC(=O)NCC[C@@H](C)[C@H]1CC[C@H]2[C@@H]3[C@H](O)[C@H](CC)[C@@H]4C[C@H](O)CC[C@]4(C)[C@H]3CC[C@]12C | 138% | 280 nM | 280 nM | 100 nM | 174% | 1
20 | CC[C@H]1[C@@H](O)[C@@H]2[C@H](CC[C@]3(C)[C@@H]([C@H](C)CCNC(=O)OC)CC[C@@H]23)[C@@]2(C)CC[C@@H](O)C[C@@H]12 | 149% | 300 nM |  |  |  | 
21 | CC[C@H]1[C@@H](O)[C@@H]2[C@H](CC[C@]3(C)[C@@H]([C@H](C)CCC(=O)NCC(=O)O)CC[C@@H]23)[C@@]2(C)CC[C@@H](O)C[C@@H]12 | 135% | 290 nM |  |  |  | 
22 | CC[C@H]1[C@@H](O)[C@@H]2[C@H](CC[C@]3(C)[C@@H]([C@H](C)CCC(=O)O)CC[C@@H]23)[C@@]2(C)CCC(C)C[C@@H]12 (some centres not stated) | 49% | 1500 nM |  |  |  | 
23 | CC[C@H]1[C@@H](O)[C@@H]2[C@H](CC[C@]3(C)[C@@H]([C@H](C)CCNS(=O)(=O)c4ccccc4)CC[C@@H]23)[C@@]2(C)CC[C@@H](O)C[C@@H]12 | 117% | 470 nM |  |  |  | 

The remaining compounds from weak to strong by EC50 (Bile acid receptor [2]), led by results:

Row | Efficacy [1] | EC50 (Bile acid receptor [2]) | EC50 [3] | EC50 (Bile acid receptor [4]) | Efficacy [5] | SMILES | Ratio EC50 (Homo sapiens)
24 | 104% | 230 nM |  |  |  | CC[C@H]1[C@@H](O)[C@@H]2[C@H](CC[C@]3(C)[C@@H]([C@H](C)CCNC(N)=O)CC[C@@H]23)[C@@]2(C)CC[C@@H](O)C[C@@H]12 | 
25 | 81% | 150 nM |  |  |  | CC[C@H]1[C@@H](O)[C@@H]2[C@H](CC[C@]3(C)[C@@H]([C@H](C)CCNC(C)=O)CC[C@@H]23)[C@@]2(C)CC[C@@H](O)C[C@@H]12 | 
26 | 100% | 150 nM |  |  |  | CC[C@H]1[C@@H](O)[C@@H]2[C@H](CC[C@]3(C)[C@@H]([C@H](C)CCNC(=O)OC4CCC4)CC[C@@H]23)[C@@]2(C)CC[C@@H](O)C[C@@H]12 | 
27 | 95% | 130 nM |  |  |  | CC[C@H]1[C@@H](O)[C@@H]2[C@H](CC[C@]3(C)[C@@H]([C@H](C)CCCNC(N)=O)CC[C@@H]23)[C@@]2(C)CC[C@@H](O)C[C@@H]12 | 
28 | 100% | 120 nM |  | 80 nM | 170% | CC[C@H]1[C@@H](O)[C@@H]2[C@H](CC[C@]3(C)[C@@H]([C@H](C)CCNC(=O)O[C@@H]4CCOC4)CC[C@@H]23)[C@@]2(C)CC[C@@H](O)C[C@@H]12 | 
29 | 85% | 110 nM |  |  |  | CC[C@H]1[C@@H](O)[C@@H]2[C@H](CC[C@]3(C)[C@@H]([C@H](C)CCCNS(C)(=O)=O)CC[C@@H]23)[C@@]2(C)CC[C@@H](O)C[C@@H]12 | 
30 | 109% | 90 nM | 240 nM | 80 nM | 167% | CC[C@H]1[C@@H](O)[C@@H]2[C@H](CC[C@]3(C)[C@@H]([C@H](C)CCNC(=O)O[C@H]4CCOC4)CC[C@@H]23)[C@@]2(C)CC[C@@H](O)C[C@@H]12 | 3
31 | 115% | 80 nM | 160 nM |  |  | CC[C@H]1[C@@H](O)[C@@H]2[C@H](CC[C@]3(C)[C@@H]([C@H](C)CCNC(=O)N4CC[C@H](O)C4)CC[C@@H]23)[C@@]2(C)CC[C@@H](O)C[C@@H]12 | 2
32 | 104% | 70 nM | 420 nM |  |  | CC[C@H]1[C@@H](O)[C@@H]2[C@H](CC[C@]3(C)[C@@H]([C@H](C)CCNC(=O)NC4CC4)CC[C@@H]23)[C@@]2(C)CC[C@@H](O)C[C@@H]12 | 6
33 | 88% | 30 nM |  |  |  | CC[C@H]1[C@@H](O)[C@@H]2[C@H](CC[C@]3(C)[C@@H]([C@H](C)CCNC(=O)c4ccccn4)CC[C@@H]23)[C@@]2(C)CC[C@@H](O)C[C@@H]12 | 
